# Assays:
# TLR8 = conditions: cited from earlier work
# [1] = test system: mixed human atheroma cell culture; experiment: IFNα production (ELISA) in mixed cell type atheroma cell culture; format: cell-based; conditions: 1 μM, 24 hours
# Procedure: Carotid endarterectomies from patients undergoing surgery for carotid disease were obtained at Charing Cross Hospital, London. The protocol was approved by the Research Ethics Committee RREC2989. All patients gave written informed consent, according to the Human Tissue Act 2004 (UK). Single cell suspensions of mixed cell types were obtained via enzymatic digestion and cultured for 24 hours as previously described (18).
# SMC were cultured in 50 cm^2 tissue culture dishes and grown until near confluence. AthSMC and AoSMC were serum starved for 24 hours and then cultured in DMEM either alone or in the presence of 10 ng/ml IL1a, 100 ng/ml Pam3Cys, 100 ng/ml FSL-1 (Pam2CGDPKHPKSF), 25 μg/ml Poly(I:C), 100 ng/ml Lipopolysaccharide (LPS), 1 μg/ml R837 (Imiquimod) and 1 μg/ml PolyU (all purchased from Invivogen). […] The concentrations used were selected on the basis of dose-response experiments as the dose with maximal effect in absence of cell death monitored via MTT.
# (§1) Cytokine production in supernatants of AthSMC and AoSMC were measured by ELISA using IL-6, IL-8 and CCL2/MCP-1 (Pharmingen, UK). IFNα was detected via a high sensitivity ELISA kit from R&D Systems. Each condition was tested in triplicate and each triplicate was analyzed separately. Concomitantly, viability was monitored with the use of 3-(4,5-dimethyl[…])-2,5-diphenyltetrazolium (MTT) (Sigma, UK).
# [2] = test system: human atheroma-derived smooth muscle cells (AthSMC); experiment: Cytokine production (ELISA) by SMC stimulated with TLR agonists for 24 hours, AthSMC compared to AoSMC; format: cell-based; conditions: 24 hours stimulation
# Procedure: AthSMC were isolated from the mixed atheroma cells via magnetic cell sorting (Miltenyi, MACS), utilizing anti-CD45 (pan-leukocyte marker) and anti-CD31 (endothelial cells) antibodies coupled to microbeads. SMC expressing SMC-alpha actin composed >90% of the cells. Control AoSMC were purchased from Promocell (Germany). Both SMC types were grown in SMC medium (Promocell, Germany) and used at passage 3 consistently in all experiments. The protocols of stimulation with TLR ligands are described below.
# SMC were cultured in 50 cm^2 tissue culture dishes and grown until near confluence. AthSMC and AoSMC were serum starved for 24 hours and then cultured in DMEM either alone or in the presence of 10 ng/ml IL1a, 100 ng/ml Pam3Cys, 100 ng/ml FSL-1 (Pam2CGDPKHPKSF), 25 μg/ml Poly(I:C), 100 ng/ml Lipopolysaccharide (LPS), 1 μg/ml R837 (Imiquimod) and 1 μg/ml PolyU (all purchased from Invivogen). Cells were serum starved for 24 h prior to stimulation with the indicated agonists. Supernatants were collected 24 hours after stimulation and frozen at −80° C. for batch analysis via ELISA. In the experiments performed on the mixed human atheroma cell culture, cells were cultured immediately after isolation at 10^6 cells per milliliter in RPMI containing 5% fetal bovine serum (Biosera, UK) in the presence or absence of 25 μg/ml Poly(I:C), 1 μM CpG ODN2006 and 1 μM CpG ODN2006 control (Invivogen) for 24 and 48 hours. The concentrations used were selected on the basis of dose-response experiments as the dose with maximal effect in absence of cell death monitored via MTT.
# as §1
# AthSMC and AoSMC [3] = experiment: TLR3 gene expression by Q-PCR in stimulated SMC; format: cell-based, human; conditions: 5 hours
# Procedure: Alternatively, AoSMc and AthSMC were stimulated with 25 μg/ml Poly(I:C) or interferon α (IFN α) at 10 ng/mL or IFNy at 10 ng/mL. Total RNA was extracted as before and TLR3 gene expression was quantified via Q-PCR with TaqMan® Gene Expression Assays (Hs01551078_m1*; Applied Biosystems Inc.).
# C57BL/6 mice = experiment: Gene expression in aortas and lymphoid tissues after chronic Poly(I:C) stimulation for 3 weeks; format: in vivo; conditions: chronic stimulation 3 weeks
# Excerpt: FIG. 10 Gene expression of anti-inflammatory factors is increased in aortas and lymphoid tissues in C57BL/6 mice treated with Poly(I:C) Aortas, spleens and para-aortic lymph nodes (PALN) of C57BL/6 mice that underwent carotid artery injury and PBS or Poly(I:C) treatment were collected at sacrifice. RNA was extracted and gene expression of CCL5, IFNβ, PD-L1, PD-L2, and IL-10 in the aorta (A), spleen (B) and PALN(C) was examined by RT-PCR. Bars show overall mean±SEM (n=4 mice per group, *p<0.05, **p<0.01 PBS v. Poly(I:C); unpaired student's t-test). Abbreviations: IFNβ: Interferon beta, IL-10: Interleukin-10, PD-L1: programmed death-ligand 1, PD-L2: programmed death-ligand 2.
# (§2) At 22 weeks of age, male C57BL/6 and TLR3^−/− mice were anesthetized with isofluorane by inhalation, the left carotid artery dissected and a non-occlusive tygon collar (length 2.5 mm; internal bore diameter, 510 μm, Cole-Parmer, London, UK) placed around the carotid artery. Mice received 250 μg Poly(I:C) (Sigma, Dorset, UK) or PBS intraperitoneally on alternate days for a total of 8 doses starting 4 days after surgery. Twenty-one days following collar placement, mice were euthanized, and neointima development and the presence of elastic lamina breaks were assessed as described below.
# (§3) Total RNA was isolated from murine tissues using the Qiagen RNeasy kit (Qiagen, Crawley, UK) according to the manufacturer's instructions. Total RNA was treated with DNase I and reverse-transcribed to cDNA using M-MLV Reverse Transcriptase RNase H-, Point Mutant (Promega, UK) and oligo(dT) primer. RT-PCR was performed using TaqMan Gene Expression Assays (CCL5 (Mm01302427_m1), VCAM1 (Mm01320970_m1), CCL2 (Mm00441242_m1), TLR3 (Mm01207403_m1), IL-10 (Mm01288386_m1), PD-L1 (Mm00452054_m1*), PD-L2 (Mm00451734_m1*) IFNβ (Mm00439552_s1*), (Applied Biosystems) and TaqMan universal PCR Master Mix (Applied Biosystems) on a 7900HT Fast Real-Time PCR System (Applied BioSystems). PCR amplification was carried out for 40 cycles. Samples were normalized to β-actin. The 2-ΔΔCt method was used to analyze the relative changes in gene expression.
# TLR3−/− mice = experiment: Perivascular collar injury: elastic lamina breaks; format: in vivo; conditions: systemic administration 250 μg i.p.
# Procedure: as §2
# Elastin-stained slides were also used to assess the integrity of the elastic laminae. The portion of the carotid artery distal to the collar (the same as used for neointima assessment) was divided into 5 segments and representative sections from each segment were evaluated for the presence of interruptions in the elastic lamina. The width of any observed break was measured by drawing a line between the start and end of a break in the external elastic lamina using ProgRes CapturePro image analysis software (version 2.5.2.0, Jenoptik). The width of any elastic lamina break was calculated as the mean width of break across all sections examined for each mouse. […]
# AthSMC and AoSMC [4] = experiment: Atherosclerosis RT2 Profiler PCR Array gene expression in SMC stimulated with Poly(I:C) for 5 hours; format: cell-based, human; conditions: 25 μg/ml
# Procedure: SMCs were plated in 9.6 cm^2 dishes and grown until near confluence. SMCs were serum starved for 24 h prior to stimulation with 25 μg/ml Poly(I:C) for 5 hours. Total cellular RNA was extracted from SMC using RNeasy® Mini Kit (Qiagen) according to the manufacturer's instructions. To remove any residual genomic DNA, RNA samples were treated with DNase (TurboDNase, Ambion) according to manufacturer's instructions. RNA was reverse transcribed to cDNA using M-MLV Reverse Transcriptase (Promega, UK). Quantitative PCR (QPCR) analysis of 84 atherosclerosis related genes was performed using Atherosclerosis RT2 Profiler PCR Arrays (SA Bioscience Corporation, USA) as per the manufacturer's protocol. The complete list of the genes analyzed is available online at http://www.sabiosciences.com/rt_per_product/HTML/PAHS-038A.html. RT2 Profiler PCR arrays were run on an ABI 7900HT machine (Applied Biosystems). Duplicate arrays were run per condition for unstimulated and Poly (I:C)-stimulated AoSMC and AthSMC. Data analysis was performed using the manufacturer's integrated web-based software package for the PCR Array System using Ct based fold-change calculations.
# C57BL/6 and TLR3−/− mice = experiment: Perivascular collar injury: neointima formation (intima/media ratio); format: in vivo
# Procedure: as §2
# […] following collar placement, mice were euthanized, terminal blood collected via cardiac puncture and the vasculature perfused with 0.9% saline. Injured carotids were dissected out and frozen at −80° C. in Optimal cutting temperature (OCT) compound (ThermoScientific, Runcorn, UK). Sham-operated contralateral arteries were used as controls. Mice were fed regular chow throughout the duration of the experiment.
# For the injured carotid artery, serial 5 μm cryosections were taken of the carotid tissue distal to the collar. Five sections were collected on each slide and 15 to 25 slides were collected per arterial segment. The first five alternate slides were stained with Accustain elastic stain kit (Sigma) according to manufacturer's instructions. Measurement of lesion and vessel areas was performed on one section per stained slide using ProgRes CapturePro image analysis software (version 2.5.2.0, Jenoptik, Germany). The area between the internal and external elastic […] was taken as the medial area and the intimal area was calculated by subtracting the lumen area from the internal elastic lamina area. The intimal medial ratio (IMR) was then calculated by dividing the intimal area by the medial area. The IMR measurements were then averaged for each mouse.
# [5] = test system: C57BL/6, ApoE−/− and TLR3−/− mice; experiment: Vascular gene expression (quantitative RT-PCR) 24 hours after a single i.p. dose of Poly(I:C); format: in vivo
# Procedure: FIG. 2 Aortic gene expression of both pro- and anti-inflammatory factors is induced by Poly(I:C) stimulation. 10- and 30-week old C57BL/6, ApoE−/− and TLR3−/− mice were stimulated with PBS or 250 μg Poly(I:C) in PBS. 24 hours post-stimulation, mice were sacrificed, aortas harvested and RNA extracted. Gene expression of CCL5 (A), IL-10 (B), VCAM-1 (C) and IFNβ (D) was examined by quantitative RT-PCR. Bars show overall mean±SEM (n=3-5 mice per group; *p<0.05, **p<0.01, ***p<0.001 PBS v. Poly(I:C); unpaired student's t-test).
# as §3
# [6] = Poly(I:C) 25 μg/ml, FSL-1 100 ng/ml
# [7] = single dose 250 μg i.p., 24 hours
compound,measurement,setting,value
CCCc1nc2c(N)nc3ccccc3c2s1 [CL075],Agonist strength for TLR8 relative to TLR7,TLR8,~10 ×
CCCCNc1nc(N)c2[nH]c(=O)n(Cc3ccc(C(=O)NCC(=O)O)cc3)c2n1 [CL264],TLR8 activation / stimulation,TLR8; CL264: even at high concentrations (>10 mg/ml),does not stimulate TLR8
CpG ODN2006,IFNα production,[1],Type I interferons are produced in the mixed cell culture population in response to TLR9 stimulation
FSL-1,"IL-6 expression, AthSMC compared to AoSMC",[2]; [6],enhanced response
same,"IL-8 expression, AthSMC compared to AoSMC",[2]; [6],enhanced response
IFNα,TLR3 gene expression,"AthSMC and AoSMC [3]; AoSMC and AthSMC, IFN 10 ng/mL",able to increase the expression of TLR3
Polyriboinosinic-polycytidylic acid [Poly(I:C)],Expression of CCL5 in the aorta,C57BL/6 mice,significantly increased
same,Expression of IFNβ in the aorta,C57BL/6 mice,significantly increased
same,Expression of IFNβ mRNA in the spleen,C57BL/6 mice,induced
same,Expression of IL10 in the aorta,C57BL/6 mice,significantly increased
same,Gene expression of PD-L1 in the para-aortic lymph nodes,C57BL/6 mice,induced
same,Gene expression of PD-L2 in the para-aortic lymph nodes,C57BL/6 mice,induced
same,"Elastic lamina breaks (frequency, depth and width)",TLR3−/− mice,"reduced the frequency, depth and width of the elastic lamina breaks"
same,"Expression of selected genes of inflammatory cell recruitment (e.g. VCAM1, CCL5) and regulation of inflammation (e.g. A20, BIRC3/cIAP)",AthSMC and AoSMC [4],significantly increased the expression
same,TLR3 gene expression,"AthSMC and AoSMC [3]; AoSMC, 25 μg/ml",not in AoSMC
same,TLR3 gene expression,"AthSMC and AoSMC [3]; AthSMC, 25 μg/ml",able to upregulate the expression of TLR3
same,"Neointima formation, intima/media ratio, compared to vehicle","C57BL/6 and TLR3−/− mice; C57BL/6 mice, 250 μg i.p., 21 days after injury, p<0.001",significantly reduced
same,Protection against neointima formation,"C57BL/6 and TLR3−/− mice; TLR3−/− mice, 250 μg i.p., p>0.05",ablated
same,End-weight of mice,"C57BL/6 and TLR3−/− mice; all groups, Poly(I:C) or vehicle",No difference
same,Gene induction in aorta of ApoE−/− mice with advanced disease compared to young ApoE−/−,[5]; 30-week vs 10-week old ApoE−/− mice,more pronounced
same,Gene induction in carotid artery tissue compared to aorta,"[5]; CCL5, CCL2, VCAM1, single dose 250 μg",even more marked
same,Expression of the induced genes in TLR3−/− mice,"[5]; TLR3−/− mice, single dose 250 μg",almost abrogated
same,A20 induction,"[5]; mice, single dose 250 μg i.p.",A20 induction was not observed
same,Aortic expression of CCL2/MCP-1,[5]; [7],induced the aortic expression
same,Aortic expression of CCL5/RANTES,[5]; [7],induced the aortic expression
same,Aortic expression of IFNβ,[5]; [7],induced the aortic expression
same,Aortic expression of IL-10,[5]; [7],induced the aortic expression
same,Aortic expression of PD-L2,[5]; [7],induced the aortic expression
same,Aortic expression of VCAM-1,[5]; [7],induced the aortic expression
same,"TLR3 gene expression in vascular tissues (aorta, carotid arteries)","[5]; single dose 250 μg, 24 hours",up-regulated TLR3 gene expression
same,"TLR3 dependent response in AthSMC compared to AoSMC (fold change in IL-6 production, FIG. 1B)",[2]; 25 μg/ml,over 40 fold
same,"CCL2/MCP-1 expression, AthSMC compared to AoSMC",[2]; [6],enhanced expression
same,"IL-6 expression, AthSMC compared to AoSMC",[2]; [6],enhanced expression
same,"IL-8 expression, AthSMC compared to AoSMC",[2]; [6],enhanced expression
